Consider two compounds from patent publication US20030153506A1, “Combination product comprising melagatran and factor VIIa inhibitor” (priority 2000, published 2003).

For one test, the system named is Platelet poor plasma. The test is described as follows: APTT clotting time in spiked platelet poor plasma, synergy model (Berenbaum). The note with it: for concentration of A required to reach the same APTT prolongation as that of the mixture (Ae): calculated from Eq 1; for concentration of B required to reach the same APTT prolongation as that of the mixture (Be): calculated from Eq 2. Type of test: biochemical, human. On the procedure: Human blood from healthy volunteers, both men and women, was collected in 50 mL conical plastic tubes containing 5 mL of 0.13 mol/L of buffered tri-sodium citrate. The blood was immediately chilled on ice and centrifuged at […] for 20 minutes. Platelet poor plasma was then divided into fractions of 10 mL each and “spiked” with melagatran (Compound A) or with the title compound of Example 1 above (Compound B) to a final concentration that prolonged APTT by approximately 20%, 40%, 60% and 100%, respectively.
APTT was determined as follows: 100 μL of pre-warmed APTT reagent (Stago Diagnostica) was added to 100 μL of pre-warmed plasma and incubated for 180 s at 37° C. Coagulation was initiated by the addition of 100 μL of CaCl2 (0.025 mol/L). The clotting time was measured with a KC 10 Coagulometer, coupled to a CR-A calculator, CR 10 printer and PR60 heat block (Amelung GmbH, Lemago Germany). Each clotting test was performed in duplicate and the mean clotting time was used.
APTT for Compound A and Compound B were tested at 4 different concentrations and the results are shown in Table 1, in which Cp A and Cp B are the plasma concentrations of Compounds A and B, respectively. APTT values are expressed in seconds and, within brackets, as percentage prolongation over the baseline value.
In order to test a possible synergistic effect between Compounds A and B the following model was used. The concentrations of Compounds A and B that caused about 20%, 40% and 60% prolongation of APTT were first determined (Table 1). Equipotent concentrations of Compounds A and B, e.g. 0.08 μmol/L of A and 1.5 μmol/L of B, were then mixed and APTT for the mixtures were determined as above. An indication of synergy is obtained if APTT for this mixture is longer than APTT for a “mixture” of equipotent concentrations of Compound A itself (i.e. Compound A+Compound A at a concentration that prolongs APTT by 20% (0.08 μmol/L+0.08 μmol/L=0.16 μmol/L)). However, a true synergistic effect between two compounds can never be established unless the dose response curves for both individual compounds are known and all data applied to the algebraic model of Berenbaum's equation (see Clin. Exp. Immunol. (1977) 28, 18): […]
(Cp A in mixture/Ae)+(Cp B in mixture/Be)<1
In this equation, CpA and CpB are the plasma concentrations of Compounds A and B, respectively in the mixture, and Ae and Be are individual concentrations of Compounds A and B that are required to obtain the same APTT results as that of the mixture. These concentrations can be calculated from the linear dose-responses for Compounds A and B, respectively (Equations 1 and 2).

The next test deals with T1, Human α-thrombin (Homo sapiens, UniProt P00734).
T1 construct: Human α-thrombin, Sigma Chemical Co. or Hematologic Technologies; purchased Sigma Chemical Co. or Hematologic Technologies
Kind of test: Test B: thrombin inhibition, chromogenic robotic assay. Type of test: biochemical. The note with it: S-2366 0.30 mmol/L, 40 min 37° C. The method, then: Determination of Thrombin Inhibition with a Chromogenic, Robotic Assay
Thrombin inhibitor potency was measured with a chromogenic substrate method, in a Plato 3300 robotic microplate processor (Rosys AG, CH-8634 Hombrechtikon, Switzerland), using 96-well, half volume microtitre plates (Costar, Cambridge, Mass., U.S.A.; Cat No 3690). Stock solutions of test substance in DMSO (72 μL), 0.1-1 mmol/L, were diluted serially 1:3 (24+48 μL) with DMSO to obtain ten different concentrations, which were analysed as samples in the assay. 2 μL of test sample was diluted with 124 μL assay buffer, 12 μL of chromogenic substrate solution (S-2366, Chromogenix, Mölndal, Sweden) in assay buffer and finally 12 μL of α-thrombin solution (Human α-thrombin, Sigma Chemical Co. or Hematologic Technologies) in assay buffer, were added, and the samples mixed. The final assay concentrations were: test substance 0.00068-13.3 μmol/L, S-2366 0.30 mmol/L, α-thrombin 0.020 NIHU/mL. The linear absorbance increment during 40 minutes incubation at 37° C. was used for calculation of percentage inhibition for the test samples, as compared to blanks without inhibitor. The IC50-robotic value, corresponding to the inhibitor concentration which causes 50% inhibition of the thrombin activity, was calculated from a log concentration vs. % inhibition curve.

A further test concerns human plasma. Kind of test: Test C: prothrombin time (PT) assay. Type of test: biochemical. The note with it: Thromborel S, doubling of the clotting time. The method, then: Prothrombin Time (PT) Assay
The following reagents were prepared: An aliquot of a frozen human plasma pool, containing citrate as an anticoagulant, was rapidly thawed at 37° C. A 10 mM stock solution of the inhibitor in DMSO was diluted with saline containing 0.1% BSA to a final 1% of DMSO. Series dilutions were made in steps of 1:3 for a dose response titration. Thromborel® S from Dade Behring GmbH (Marburg, Germany), was reconstituted 1:10 with 25 mM CaCl2, according to the instructions of the manufacturer. 2.5μL of inhibitor was mixed with 22.5 μL human plasma, incubated for 1 min. at 37° C. in the cup of an Amelung KC10 microcoagulometer from Heinrich Amelung GmbH (Lemgo, Germany). Coagulation was initiated by addition of 50 μL Thromborel S, which was pre-warmed at 37° C. The time to clot was determined (CTI) for each inhibitor concentration ([I]) in duplo. A titration curve was made by plotting the inverse clotting time versus the inhibitor concentration. The IC50 value, the time to double the clotting time, was determined by non-linear regression to the equation:
CT0/CTI=1/(1+([I]/IC50)^S)
where “CT0”=the clotting time without inhibitor added, and “s” the slope.

Test [1] has as its target T2, Recombinant human factor VIIa (Homo sapiens, UniProt P08709).
T2 construct: Recombinant human factor VIIa (rFVIIa, product no 407); purchased American Diagnostica Inc. product no 407 (rFVIIa); product no 4500 (rTF)
The test is described as follows: Test A: chromogenic robot method for Factor VIIa. It counts as biochemical. The method, then:
Chromogenic Robot Method for Factor VIIa:
The chromogenic substrate Spectrozyme FVIIa, CH3SO2-D-CHA-But-Arg-pNA (pefachrome 5979 from Pentapharm, Switzerland) was purchased from American-Diagnostica Inc. (Greenwich, Conn., U.S.A.). The KM under the conditions of the assay was determined separately. Recombinant human factor VIIa (rFVIIa, product no 407) and non-lipidated recombinant human tissue-factor (rTF, product no 4500) were purchased from American Diagnostica Inc. The stock solutions of rFVIIa (1.08 mg protein dissolved with 1 mL water to 21.6 μM in 20 mM Tris-HCl, 100 mM NaCl, pH 7.4) and rTF (1 mg protein with 1.5 mL water to 19 μM in 50 mM Tris-HCl, pH 8.0, 150 mM NaCl, CHAPS (3-((3-cholamidopropyl)dimethylammoniol)-1-propanesulphonate; 10 mM) and 200 mM mannitol) were stored in 0.5 mL reagent tubes at −80° C. […] After mixing and incubation for 40 minutes at 37° C., the optical absorbance difference was read at 405 nm. The IC50 value for each compound was calculated by non-linear regression to the equation:
Where AI=the final absorbance at 405 nm in the presence of the inhibitor, A0=in the absence of inhibitor, and s the slope in the dose titration curve, which has the theoretical value of 1 for a pure competitive inhibitor. […]

Setting [2] is: mixture 0.08 (A) + 1.5 (B) μmol/L.
Setting [3] is: mixture 0.18 (A) + 3.2 (B) μmol/L.
Setting [4] is: mixture 0.27 (A) + 4.9 (B) μmol/L.

The term IC50 denotes the midpoint of a concentration-inhibition curve.

T2 sequence (P08709 213-466 limits assumed): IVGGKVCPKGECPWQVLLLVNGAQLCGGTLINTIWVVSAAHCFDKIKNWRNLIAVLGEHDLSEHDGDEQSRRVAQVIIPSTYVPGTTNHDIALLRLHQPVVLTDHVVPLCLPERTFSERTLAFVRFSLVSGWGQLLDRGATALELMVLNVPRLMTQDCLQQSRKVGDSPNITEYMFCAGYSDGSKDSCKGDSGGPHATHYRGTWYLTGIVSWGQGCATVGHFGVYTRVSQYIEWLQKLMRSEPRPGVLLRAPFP
T2 sequence (P08709 61-212 limits assumed): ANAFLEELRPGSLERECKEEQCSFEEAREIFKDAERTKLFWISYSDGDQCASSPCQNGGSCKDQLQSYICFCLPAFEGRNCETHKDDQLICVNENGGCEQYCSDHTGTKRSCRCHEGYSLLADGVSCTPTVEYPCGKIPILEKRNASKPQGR
T2 sequence (P13726 33-295 partner): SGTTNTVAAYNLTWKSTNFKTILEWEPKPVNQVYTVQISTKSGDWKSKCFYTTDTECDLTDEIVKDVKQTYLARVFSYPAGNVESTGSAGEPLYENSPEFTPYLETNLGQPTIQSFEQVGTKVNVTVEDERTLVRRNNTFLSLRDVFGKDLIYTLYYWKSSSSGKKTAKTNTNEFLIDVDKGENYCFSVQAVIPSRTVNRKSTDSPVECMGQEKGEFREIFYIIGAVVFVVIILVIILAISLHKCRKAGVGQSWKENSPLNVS

On to `N=C(N)c1ccc(CNC(=O)[C@@H]2CCN2C(=O)[C@H](NCC(=O)O)C2CCCCC2)cc1` [Compound A, HOOC—CH2—(R)Cgl-Aze-Pab-H], for which the APTT in the test with Platelet poor plasma (Compound A + A, 0.08 + 0.08 = 0.16 μmol/L) amounted to 51.8 s; in the test on Platelet poor plasma (Compound A + A, 0.18 + 0.18 = 0.36 μmol/L) it was 62.4 s; in the test with Platelet poor plasma (Compound A + A, 0.27 + 0.27 = 0.54 μmol/L), 71.9 s; in the test on Platelet poor plasma (Cp A 0.08 μmol/L, baseline 36.8 s), 45.8 s; in the test with Platelet poor plasma (Cp A 0.18 μmol/L, baseline 36.8 s) it was 53.8 s; in the test with Platelet poor plasma (Cp A 0.27 μmol/L, baseline 36.8 s) it was 59.2 s. For the same compound, the APTT in the test with Platelet poor plasma (Cp A 0.56 μmol/L, baseline 36.8 s) stood at 72.1 s. Further, the “APTT percentage prolongation over the baseline value” with Platelet poor plasma (Cp A 0.08 μmol/L) was 24%; in the test on Platelet poor plasma (Cp A 0.18 μmol/L), 46%; in the test with Platelet poor plasma (Cp A 0.27 μmol/L) it was 61%; with Platelet poor plasma (Cp A 0.56 μmol/L), 96%. Moreover, the “concentration of A required to reach the same APTT prolongation as that of the mixture (Ae)” value in the test with Platelet poor plasma (setting [2]) was 0.21 µmol/L; in the test with Platelet poor plasma (setting [3]), 0.53 µmol/L; in the test on Platelet poor plasma (setting [4]), 0.83 µmol/L.
Consider `CC(C)C[C@H](NC(=O)[C@H](NS(=O)(=O)Cc1cccc(C(=O)O)c1)C(C)C)C(=O)NCc1ccc(C(=N)N)cc1` [Example 1, N-[(3-Carboxybenzyl)sulfonyl]-D-valyl-N^1-{4-[amino(imino)methyl]-benzyl}-L-leucinamide], for which the IC50 at Human α-thrombin came out at 6.2 µM; in the test with human plasma, 3.8 µM; in test [1] (Test A, rFVIIa-rTF, Spectrozyme FVIIa 0.2 mM, 40 min 37° C.), 0.064 µM. The “APTT percentage prolongation over the baseline value” in the test with Platelet poor plasma (Cp B 1.50 μmol/L) amounted to 26%; in the test on Platelet poor plasma (Cp B 3.20 μmol/L), 44%; in the test with Platelet poor plasma (Cp B 4.90 μmol/L), 62%; in the test on Platelet poor plasma (Cp B 8.30 μmol/L), 105%. In addition, the APTT with Platelet poor plasma (Cp B 1.50 μmol/L, baseline 35.7 s) stood at 45.2 s; with Platelet poor plasma (Cp B 3.20 μmol/L, baseline 35.7 s), 51.5 s; with Platelet poor plasma (Cp B 4.90 μmol/L, baseline 35.7 s), 57.7 s; with Platelet poor plasma (Cp B 8.30 μmol/L, baseline 35.7 s) it was 73.3 s. In addition, the results for the “concentration of B required to reach the same APTT prolongation as that of the mixture (Be)” value in the test on Platelet poor plasma (setting [2]), in the test on Platelet poor plasma (setting [3]) and with Platelet poor plasma (setting [4]) were 3.87 µmol/L, 7.98 µmol/L and 11.80 µmol/L, respectively. Further, the “selectivity for Factor VIIa” value in test [1] (conclusion from Tests A, B and C) is given as “selective inhibitor of Factor VIIa”.
